Experimental findings from patent US20240059727A1, “METHOD OF MAKING NICOTINAMIDE RIBOFURANOSIDE SALTS BY SALT METATHESIS, THE CRYSTALLINE FORM OF ITS TOSYLATE SALT AND THE CO-CRYSTALLIZED FORM OF ITS CHLORIDE:IODIDE SALT” (BIOSYNTH AG, priority 2021, published 2024) are described below.

A short description of the data set: Solubility in methanol. To be noted: volume of methanol per 1 g salt; lower volume = better solubility.

Turning to `NC(=O)c1ccc[n+](C2OC(CO)C(O)C2O)c1.[Br-]` [NR·Br, nicotinamide-β-D-ribofuranoside bromide], the “methanol needed for dissolving 1 g of the salt” value turned out to be 50 mL. With `NC(=O)c1ccc[n+]([C@@H]2O[C@H](CO)[C@@H](O)[C@H]2O)c1.[Cl-]` [NR·Cl, nicotinamide-β-D-ribofuranoside chloride] the figure was 40 mL.

With “nicotinamide-β-D-ribofuranoside tosylate [NR·p-tosylate]”, the “methanol needed for dissolving 1 g of the salt” value was found to be 15 mL.
